SMILES strings stand for the structures.

Our source for the Ki values is PMC3930694, “Small Molecule Inhibitors Target the Tissue Transglutaminase and Fibronectin Interaction” (PLoS ONE, 2014).

The target in the experiment is T1, Tissue transglutaminase (TG2) (Homo sapiens, UniProt P21980).
T1 construct: gene TGM2; Full length TG2, His6-tagged, expressed in E. coli
The experiment in a line: competition ELISA with purified His6-TG2 and biotinylated FN42 (FN42 saturation curves, Lineweaver-Burk); AlphaLISA. The class given is binding.

T1 sequence (P21980 whole entry): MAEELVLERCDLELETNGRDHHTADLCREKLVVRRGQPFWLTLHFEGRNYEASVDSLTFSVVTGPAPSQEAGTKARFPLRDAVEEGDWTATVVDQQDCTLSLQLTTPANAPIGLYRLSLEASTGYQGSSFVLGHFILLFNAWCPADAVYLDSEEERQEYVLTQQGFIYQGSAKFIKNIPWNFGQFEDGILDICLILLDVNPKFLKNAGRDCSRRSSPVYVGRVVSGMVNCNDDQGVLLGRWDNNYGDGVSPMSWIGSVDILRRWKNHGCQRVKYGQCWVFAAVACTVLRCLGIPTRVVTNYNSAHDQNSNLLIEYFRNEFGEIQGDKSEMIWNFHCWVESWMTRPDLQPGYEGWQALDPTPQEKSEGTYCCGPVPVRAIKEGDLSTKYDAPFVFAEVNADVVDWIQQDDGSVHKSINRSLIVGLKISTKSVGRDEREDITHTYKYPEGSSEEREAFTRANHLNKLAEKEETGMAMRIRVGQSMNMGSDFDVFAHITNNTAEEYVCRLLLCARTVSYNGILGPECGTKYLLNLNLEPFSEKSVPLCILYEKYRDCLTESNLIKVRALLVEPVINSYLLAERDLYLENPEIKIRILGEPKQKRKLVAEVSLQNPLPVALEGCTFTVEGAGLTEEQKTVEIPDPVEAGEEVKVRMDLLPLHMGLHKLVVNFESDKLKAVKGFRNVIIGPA
T1 sequence (P02751 32-2477 partner): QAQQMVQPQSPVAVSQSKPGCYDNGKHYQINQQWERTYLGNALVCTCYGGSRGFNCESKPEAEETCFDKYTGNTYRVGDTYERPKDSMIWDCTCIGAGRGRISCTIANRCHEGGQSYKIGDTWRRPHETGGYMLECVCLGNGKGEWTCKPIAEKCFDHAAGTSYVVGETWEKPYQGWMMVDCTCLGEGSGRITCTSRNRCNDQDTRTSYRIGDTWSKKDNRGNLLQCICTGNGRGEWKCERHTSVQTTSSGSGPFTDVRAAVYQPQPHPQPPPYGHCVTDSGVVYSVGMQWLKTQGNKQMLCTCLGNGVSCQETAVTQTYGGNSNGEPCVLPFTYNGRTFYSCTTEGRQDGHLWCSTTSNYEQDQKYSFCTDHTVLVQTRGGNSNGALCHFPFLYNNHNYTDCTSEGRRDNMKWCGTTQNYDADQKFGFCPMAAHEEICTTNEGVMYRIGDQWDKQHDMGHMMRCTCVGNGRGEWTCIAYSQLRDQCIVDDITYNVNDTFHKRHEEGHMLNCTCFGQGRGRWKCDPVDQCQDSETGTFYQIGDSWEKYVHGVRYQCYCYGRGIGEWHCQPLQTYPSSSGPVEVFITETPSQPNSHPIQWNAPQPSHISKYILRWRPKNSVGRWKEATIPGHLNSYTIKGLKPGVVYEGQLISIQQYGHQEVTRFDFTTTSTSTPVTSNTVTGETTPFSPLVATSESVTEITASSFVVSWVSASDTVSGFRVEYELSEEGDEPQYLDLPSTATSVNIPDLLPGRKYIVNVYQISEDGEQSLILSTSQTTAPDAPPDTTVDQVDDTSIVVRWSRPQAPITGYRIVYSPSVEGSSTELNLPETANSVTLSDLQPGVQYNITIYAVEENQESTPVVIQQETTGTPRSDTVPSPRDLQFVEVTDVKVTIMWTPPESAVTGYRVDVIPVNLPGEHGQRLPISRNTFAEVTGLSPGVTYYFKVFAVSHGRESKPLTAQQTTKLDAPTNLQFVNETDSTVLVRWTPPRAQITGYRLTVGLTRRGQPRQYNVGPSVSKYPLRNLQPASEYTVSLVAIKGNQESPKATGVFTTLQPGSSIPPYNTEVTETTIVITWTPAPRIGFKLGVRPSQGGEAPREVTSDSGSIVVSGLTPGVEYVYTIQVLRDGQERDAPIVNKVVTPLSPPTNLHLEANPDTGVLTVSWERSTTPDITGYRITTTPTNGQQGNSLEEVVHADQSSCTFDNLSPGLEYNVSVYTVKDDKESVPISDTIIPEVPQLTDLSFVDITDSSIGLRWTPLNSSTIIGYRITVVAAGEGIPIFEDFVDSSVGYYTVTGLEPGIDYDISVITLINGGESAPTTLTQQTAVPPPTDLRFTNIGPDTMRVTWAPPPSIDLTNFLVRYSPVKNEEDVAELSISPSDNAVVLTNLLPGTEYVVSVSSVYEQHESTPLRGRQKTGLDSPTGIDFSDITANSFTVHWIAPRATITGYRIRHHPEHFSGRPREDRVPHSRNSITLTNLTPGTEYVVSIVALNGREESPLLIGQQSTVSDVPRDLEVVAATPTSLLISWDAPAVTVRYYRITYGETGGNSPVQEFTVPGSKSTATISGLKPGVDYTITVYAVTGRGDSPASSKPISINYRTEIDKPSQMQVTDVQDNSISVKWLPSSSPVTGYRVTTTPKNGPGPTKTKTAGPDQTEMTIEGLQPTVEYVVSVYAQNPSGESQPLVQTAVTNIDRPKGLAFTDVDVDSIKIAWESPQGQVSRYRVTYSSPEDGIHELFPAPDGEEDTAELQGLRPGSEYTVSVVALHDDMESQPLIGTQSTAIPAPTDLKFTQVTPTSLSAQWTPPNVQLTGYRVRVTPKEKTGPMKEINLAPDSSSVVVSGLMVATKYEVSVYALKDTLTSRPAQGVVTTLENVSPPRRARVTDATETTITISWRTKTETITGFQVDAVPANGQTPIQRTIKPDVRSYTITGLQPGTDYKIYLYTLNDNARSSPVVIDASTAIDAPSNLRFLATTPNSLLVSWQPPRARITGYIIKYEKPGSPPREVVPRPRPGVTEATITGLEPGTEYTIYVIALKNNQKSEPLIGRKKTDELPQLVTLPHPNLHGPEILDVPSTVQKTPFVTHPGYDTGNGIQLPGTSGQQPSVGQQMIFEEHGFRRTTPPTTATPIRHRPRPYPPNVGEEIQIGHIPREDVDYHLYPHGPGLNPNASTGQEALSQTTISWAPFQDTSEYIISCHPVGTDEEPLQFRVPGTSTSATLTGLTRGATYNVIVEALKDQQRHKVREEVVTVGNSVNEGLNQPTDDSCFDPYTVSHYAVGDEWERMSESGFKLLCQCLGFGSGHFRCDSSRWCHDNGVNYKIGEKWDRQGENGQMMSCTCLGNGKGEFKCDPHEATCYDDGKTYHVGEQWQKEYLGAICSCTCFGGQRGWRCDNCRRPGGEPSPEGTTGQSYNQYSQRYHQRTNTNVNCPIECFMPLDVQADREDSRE

For `COc1ccc(Cl)cc1C(=O)Nc1ccc(Nc2nc(C)cc(N(C)C)n2)cc1` [TG53], the affinity, expressed as Ki, was 4.15 µM. In other words, the single-digit micromolar range.
